Measured values from publication PMC10439230 (Scientific Reports, 2023).

Experiments:
[1] = system: MRC-5 normal embryonic lung fibroblast cell line; test: Cytotoxic activity assay (MTT), normal cells; format: cell-based; conditions: Homo sapiens, MRC5, 48 h exposure, read-out: Cell lines, IC50 (μM) MRC-5
Text: (§1) The synthetic compounds were screened for their cytotoxic activity using standard MTT or XTT methods[30] against a panel of nine human cancer cell lines and one normal cell line, including MDA-MB-231 (triple-negative breast cancer), T-47D (hormone-dependent breast cancer), HepG2 (hepatocellular carcinoma), A549 (lung adenocarcinoma), H69AR (multidrug-resistant small cell lung carcinoma), HuCCA-1 (cholangiocarcinoma derived from a patient), HeLa (cervical carcinoma), and two leukemia cell lines, HL-60 (acute promyelocytic leukemia) and MOLT-3 (T cell acute lymphoblastic leukemia). MRC-5 normal embryonic lung fibroblast cell line was used to represent normal cells. Chemotherapeutic drugs, doxorubicin and etoposide, were used as positive controls.
(§2) The cells were seeded into 96-well plates (100 µL for adherent cells and 75 µL for suspended cells) at a density of 5000–20,000 cells per well, depending on their growth rates. Adherent and suspended cells were then allowed to grow at 37 °C with 95% humidity and 5% CO2 for 24 h and 30 min, respectively. The cytotoxicity assay was initiated by adding an equal volume of cell culture medium containing tested compound at predetermined concentrations. Following 48 h of exposure, cell viability was determined using MTT assay for adherent cells[51],[52]or XTT assay for suspeended cells. Briefly, for adherent cells, 100 µL of the MTT reagent was added to each well, and the microtiter plates were further incubated for 2.5–4 h. The medium was subsequently replaced with 100 µL of DMSO to dissolve the purple formazan before the absorbance at 550 nm was measured using a microplate reader (a SpectraMax Plus 384) with a reference wavelength of 650 nm. For suspended cells, 75 µL of the XTT reagent was added to each well, and the cells were further incubated for 4 h. Afterwards, the absorbance of orange formazan at 492 nm was measured with a reference wavelength of 690 nm using a microplate reader.

[2] = system: HepG2 (hepatocellular carcinoma); test: Cytotoxic activity assay (MTT); format: cell-based, human; conditions: for IC50: Homo sapiens, HepG2, 48 h exposure, MTT, read-out: Cell lines, IC50 (μM) HepG2; for Selectivity Index (SI) values HepG2: SI = IC50 normal cell (MRC-5)/ IC50 cancer cell
Text: as §1, §2

[3] = system: MDA-MB-231 (triple-negative breast cancer); test: Cytotoxic activity assay (MTT); format: cell-based, human; conditions: for IC50: Homo sapiens, MDA-MB-231, 48 h exposure, MTT, read-out: Cell lines, IC50 (μM) MDA-MB-231; for Selectivity Index (SI) values MDA-MB-231: SI = IC50 normal cell (MRC-5)/ IC50 cancer cell
Text: as §1, §2

[4] = system: H69AR (multidrug-resistant small cell lung carcinoma); test: Cytotoxic activity assay (MTT); format: cell-based, human; conditions: for IC50: Homo sapiens, H69AR, 48 h exposure, MTT, read-out: Cell lines, IC50 (μM) H69AR; for Selectivity Index (SI) values H69AR: SI = IC50 normal cell (MRC-5)/ IC50 cancer cell
Text: as §1, §2

[5] = system: HeLa (cervical carcinoma); test: Cytotoxic activity assay (MTT); format: cell-based, human; conditions: for IC50: Homo sapiens, 48 h exposure, MTT, read-out: Cell lines, IC50 (μM) HeLa; for Selectivity Index (SI) values HeLa: SI = IC50 normal cell (MRC-5)/ IC50 cancer cell
Text: as §1, §2

[6] = system: HuCCA-1 (cholangiocarcinoma derived from a patient); test: Cytotoxic activity assay (MTT); format: cell-based, human; conditions: for IC50: Homo sapiens, HuCC-A1, 48 h exposure, MTT, read-out: Cell lines, IC50 (μM) HuCCA-1; for Selectivity Index (SI) values HuCCA-1: SI = IC50 normal cell (MRC-5)/ IC50 cancer cell
Text: as §1, §2

[7] = system: T-47D (hormone-dependent breast cancer); test: Cytotoxic activity assay (MTT); format: cell-based, human; conditions: for IC50: Homo sapiens, T47D, 48 h exposure, MTT, read-out: Cell lines, IC50 (μM) T47-D; for Selectivity Index (SI) values T47-D: SI = IC50 normal cell (MRC-5)/ IC50 cancer cell
Text: as §1, §2

[8] = system: A549 (lung adenocarcinoma); test: Cytotoxic activity assay (MTT); format: cell-based, human; conditions: for IC50: Homo sapiens, A549, 48 h exposure, MTT, read-out: Cell lines, IC50 (μM) A549; for Selectivity Index (SI) values A549: SI = IC50 normal cell (MRC-5)/ IC50 cancer cell
Text: as §1, §2

[9] = system: MOLT-3 (T cell acute lymphoblastic leukemia); test: Cytotoxic activity assay (XTT); format: cell-based, human; conditions: for IC50: Homo sapiens, MOLT-3, 48 h exposure, XTT, read-out: Cell lines, IC50 (μM) MOLT-3; for Selectivity Index (SI) values MOLT-3: SI = IC50 normal cell (MRC-5)/ IC50 cancer cell
Text: as §1, §2

[10] = system: HL-60 (acute promyelocytic leukemia); test: Cytotoxic activity assay (XTT); format: cell-based, human; conditions: for IC50: Homo sapiens, HL-60, 48 h exposure, XTT, read-out: Cell lines, IC50 (μM) HL-60; for Selectivity Index (SI) values HL-60: SI = IC50 normal cell (MRC-5)/ IC50 cancer cell
Text: as §1, §2

| SMILES | IC50 [1] [µM] | IC50 [2] [µM] | Selectivity Index (SI) values HepG2 [2] | IC50 [3] [µM] | Selectivity Index (SI) values MDA-MB-231 [3] | IC50 [4] [µM] | Selectivity Index (SI) values H69AR [4] | IC50 [5] [µM] | Selectivity Index (SI) values HeLa [5] | IC50 [6] [µM] | Selectivity Index (SI) values HuCCA-1 [6] | IC50 [7] [µM] | Selectivity Index (SI) values T47-D [7] | IC50 [8] [µM] | Selectivity Index (SI) values A549 [8] | IC50 [9] [µM] | Selectivity Index (SI) values MOLT-3 [9] | IC50 [10] [µM] | Selectivity Index (SI) values HL-60 [10] |
| --- | --- | --- | --- | --- | --- | --- | --- | --- | --- | --- | --- | --- | --- | --- | --- | --- | --- | --- | --- |
| C=C1CC[C@H]2C(C)(C)CCC[C@]2(C)[C@H]1CC/C(C)=C/C(=O)NN [Compound 4k, (E)-3-Methyl-5-((1S,4aS,8aS)-5,5,8a-trimethyl-2-methylenedecahydro-naphthalen-1-yl)pent-2-enehydrazide] | 145.8 ± 0.34 | > 120 | 0.9 | 98.5 ± 3.01 | 1.5 | > 120 | 0.9 | 118.78 ± 0.06 | 1.2 | 130 ± 2 | 1.1 | > 120 | 0.9 | > 120 | 0.9 | 29.3 ± 2.43 | 5.0 | 108 ± 1.53 | 1.4 |
| C=C1CCC2C(C)(C)CCCC2(C)C1CCC(C)=CC(=O)NCC(=O)OCC [Compound 4r, Ethyl ((E)-3-methyl-5-((1S,4aS,8aS)-5,5,8a-trimethyl-2-methylenedec-ahydronaphthalen-1-yl)pent-2-enoyl)glycinate] | 63.9 ± 0.65 | 61.3 ± 1.12 | 1.0 | 23.4 ± 0.81 | 2.7 | 45.9 ± 1.8 | 1.4 | 36.6 ± 1.44 | 1.7 | 72.3 ± 1.93 | 0.9 | 87.2 ± 6.02 | 0.7 | 67.3 ± 2.09 | 0.9 | 11.5 ± 1.13 | 5.6 | 23.9 ± 0.59 | 2.7 |
| C=C1CC[C@H]2C(C)(C)CCC[C@]2(C)[C@H]1CC/C(C)=C/C(=O)NC [Compound 4a, (E)-N,3-Dimethyl-5-((1S,4aS,8aS)-5,5,8a-trimethyl-2-methylenedecahydro-naphthalen-1-yl)pent-2-enamide] | 55.9 ± 0.19 | 73.4 ± 2.06 | 0.8 | 29.9 ± 0.71 | 1.9 | 122 ± 3.48 | 0.5 | 47.7 ± 1.08 | 1.2 | 62.9 ± 1.36 | 0.9 | 73.4 ± 2.06 | 0.8 | 65.1 ± 3.57 | 0.9 | 25.5 ± 0.7 | 2.2 | 24.7 ± 1.41 | 2.3 |
| C=CCNC(=O)/C=C(\C)CC[C@H]1C(=C)CC[C@H]2C(C)(C)CCC[C@]12C [Compound 4b, (E)-N-Allyl-3-methyl-5-((1S,4aS,8aS)-5,5,8a-trimethyl-2-methylenedeca-hydronaphthalen-1-yl)pent-2-enamide] | > 120 | 107 ± 1.28 | 1.4 | 114.3 ± 0.72 | 1.3 | > 120 | 1.0 | 79.61 ± 0.49 | 1.8 | > 120 | 1.0 | > 120 | 1.0 | > 120 | 1.0 | 25.4 ± 0.51 | 5.7 | 22.7 ± 0.84 | 6.4 |
